How the values were obtained:
Assay type in all cases: binding
[1] = target: human MDM4 protein (amino acids 2-185) (Homo sapiens (Human), UniProt O15151); assay: TR-FRET p53-MDM4 Assay 1; settings: 2.5 nM MDM4-biotinylated, 10 nM Cy5-p53 peptide
Experimental: (§1) Time Resolved Fluorescence Energy Transfer (TR-FRET) Assay
(§2) The inhibition of p53-MDM2 and p53-MDM4 interactions is measured by time resolved fluorescence energy transfer (TR-FRET). Fluorescence energy transfer (or Foerster resonance energy transfer) describes an energy transfer between donor and acceptor fluorescent molecules. For this assay, human MDM2 protein (amino acids 2-188) and human MDM4 protein (amino acids 2-185), tagged with a C-terminal biotin moiety, are used in combination with a Europium labeled streptavidin (Perkin Elmer, Inc., Waltham, Mass., USA) serving as the donor fluorophore. The p53 derived, Cy5 labeled peptide Cy5-TFSDLWKLL (p53 aa18-26) is the energy acceptor. Upon excitation of the donor molecule at 340 nm, binding interaction between MDM2 or MDM4 and the p53 peptide induces energy transfer and enhanced response at the acceptor emission wavelength at 665 nm.
(§3) Disruption of the formation of the p53-MDM2 or p53-MDM4 complex due to an inhibitor molecule binding to the p53 binding site of MDM2 or MDM4 results in increased donor emission at 620 nm. The ratiometric FRET assay readout is calculated from the raw data of the two distinct fluorescence signals measured in time resolved mode (fluorescence 665 nm/fluorescence 620 nm×1000).
(§4) The test is performed in white 384-well plates (Greiner Bio-One, reference 781207) in a total volume of 60 μL by adding 1 μL of compounds tested at different concentrations diluted in 100% DMSO (1.7% final DMSO concentration) in reaction buffer (PBS, 125 mM NaCl, 0.001% Novexin (consists of carbohydrate polymers), designed to increase the solubility and stability of proteins; Expedeon Ltd., Cambridgeshire, United Kingdom), 0.01% Gelatin, 0.01% 0.2%, Pluronic F-127 (block copolymer from ethylenoxide and propyleneoxide), 1 mM DTT). After addition of 1.25 nM MDM2-biotinylated or 2.5 nM MDM4-biotinylated (internal preparations, both MDM2 and MDM4 are biotinylated at the C-terminal of the peptide construct), and 0.625 nM Europium labeled streptavidin (Perkin Elmer), the solution is pre-incubated for 15 minutes at room temperature, then 10 nM Cy5-p53 peptide (internal preparation, the Cy5 dye is directly bound to the N-terminal part of p53 peptide construct) is added before an incubation at room temperature for 15 minutes prior to reading the plate. For measurement of samples, a Victor II microplate reader (Perkin Elmer) is used with the following settings: Excitation 340 nm, Emission Donor 620 nm and Emission Acceptor 665 nm. IC50 values are calculated by curve fitting using XLfit. If not specified, reagents are purchased from Sigma-Aldrich Chemie GmBH, Buchs, Switzerland.
(§5) This assay was used to evaluate compounds displaying inhibition of p53-MDM2 interaction and p53-MDM4 interaction at IC50s of 0.005 to 50 μM (p53-MDM2 Assay 1 and p53-MDM4 Assay 1, respectively). For selected compounds displaying IC50s between […] on MDM2, a slightly modified assay is used with the following adaptations: 0.1 nM MDM2, 0.1 nM Europium labeled streptavidin and Tecan genios Pro is used as a microplate reader for the fluorescence measurements (p53-MDM2 Assay 2).

[2] = target: T1, human MDM2 protein (amino acids 2-188) (Homo sapiens (Human), UniProt Q00987); assay: TR-FRET p53-MDM2 Assay 1; settings: 1.25 nM MDM2-biotinylated, 10 nM Cy5-p53 peptide
T1 sequence (Q00987 2-188): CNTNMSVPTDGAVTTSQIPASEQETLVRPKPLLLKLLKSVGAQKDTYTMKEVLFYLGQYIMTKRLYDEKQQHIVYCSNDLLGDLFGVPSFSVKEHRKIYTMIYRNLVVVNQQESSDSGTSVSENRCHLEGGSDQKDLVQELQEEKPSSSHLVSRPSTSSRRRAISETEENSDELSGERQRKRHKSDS
Experimental: as §1, §2, §3, §4, §5

[3] = target: T1, human MDM2 protein (amino acids 2-188); assay: TR-FRET p53-MDM2 Assay 2 (modified: 0.1 nM MDM2); settings: 0.1 nM MDM2, 0.1 nM Europium labeled streptavidin, Tecan genios Pro reader
Experimental: as §1, §2, §3, §4, §5

Chain of human MDM4 protein (amino acids 2-185) (O15151 2-185): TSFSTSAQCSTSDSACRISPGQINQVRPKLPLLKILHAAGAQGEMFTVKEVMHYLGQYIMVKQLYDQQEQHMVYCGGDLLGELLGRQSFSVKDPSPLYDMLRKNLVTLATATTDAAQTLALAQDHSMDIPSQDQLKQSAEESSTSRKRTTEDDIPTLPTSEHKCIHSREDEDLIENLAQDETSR

SMILES	IC50 [1] [µM]	IC50 [2] [µM]	IC50 [3] [nM]
COc1ccccc1-c1nc2c(n1C(C)C)C(c1ccc(Cl)cc1)N(c1cccc(Cl)c1F)C(=O)N2 (stereo not shown) [Example 1, 1-(3-Chloro-2-fluoro-phenyl)-6-(4-chloro-phenyl)-7-isopropyl-8-(2-methoxy-phenyl)-1,3,6,7-tetrahydro-purin-2-one]	1.51	0.002	0.882
COc1ccncc1-c1nc2c(n1C(C)C)C(c1ccc(Cl)cc1C)N(c1cc(Cl)ccc1C)C(=O)N2 (stereo not shown) [Example 4, 6-(4-Chloro-2-methylphenyl)-1-(5-chloro-2-methylphenyl)-7-isopropyl-8-(4-methoxypyridin-3-yl)-6,7-dihydro-1H-purin-2(3H)-one]	16.7	0.0031	
COc1ccccc1-c1nc2c(n1C(C)C)C(c1ccc(Cl)cc1C)N(c1cc(Cl)ccc1C)C(=O)N2 (stereo not shown) [Example 3, 6-(4-Chloro-2-methylphenyl)-1-(5-chloro-2-methylphenyl)-7-isopropyl-8-(2-methoxyphenyl)-6,7-dihydro-1H-purin-2(3H)-one]	1.45	0.0018	
COc1ccccc1-c1nc2c(n1C(C)C)C(c1ccc(Cl)cc1C)N(c1cccc(Cl)c1F)C(=O)N2 (stereo not shown) [Example 2, 1-(3-Chloro-2-fluoro-phenyl)-6-(4-chloro-2-methyl-phenyl)-7-isopropyl-8-(2-methoxy-phenyl)-1,3,6,7-tetrahydro-purin-2-one]	2.13	0.0021	0.779
